From patent publication US11673925B2, “Oligopeptide with anti-inflammatory activity, preparation method, and application thereof” (NANJING UNIVERSITY OF FINANCE AND ECONOMICS, priority 2021, dated 2023)
Where a SMILES comes first, the peptide text is derived from it.

Tested on: RAW 264.7 normal macrophages
Type: cell-based
Source text: (4) detection of effects of respective components (WGPH-I, WGPH-II, and WGPH-III) on the proliferation activity of RAW 264.7 normal macrophages by a methyl thiazolyl tetrazolium (MTT) assay
RAW 264.7 macrophages in a logarithmic growth phase are taken and prepared into a cell suspension of 3×10^4 cells/mL in a RPIM 1640 culture medium containing 10% FBS. Sample wells are set in a 96-well plate (also referred to as 96-well tissue culture plates), and 100 microliters (μL) of cell suspension are added to each sample well, and the cells are cultured in a cell incubator for 12 h to make the cells adhere to the wall. After removing the culture medium in the sample wells, different components WGPH-I (>3 kDa), WGPH-II (1˜3 kDa), and WGPH-III (<1 kDa) are dissolved in RPIM 1640 culture medium containing 10% FBS to prepare different concentrations of oligopeptide culture medium (0, 50, 100, 200, and 300 μg/mL) respectively, and then added to respective sample wells, 100 μL per well. A blank well is set, and compared with the sample wells, there is no cell, with 100 μL PBS instead of the oligopeptide culture medium. A control well is set, compared with the sample wells, there is cells, with 100 μL PBS instead of oligopeptide culture medium. […] The absorbance is measured at a wavelength of 570 nanometers (nm) in the microplate reader. […]

Structure (SMILES): C[C@H](N)C(=O)N1CCC[C@H]1C(=O)N[C@@H](CCC(=O)O)C(=O)N1CCC[C@H]1C(=O)N[C@@H](CCC(=O)O)C(=O)N1CCC[C@H]1C(=O)N[C@@H](C)C(=O)N[C@@H](Cc1ccccc1)C(=O)O [oligopeptide] (H-APEPEPAF-OH)
- effect on the proliferation activity of macrophages: no effect
